Earlier results, collected in US20090053307A1, “IMMEDIATE-RELEASE T[…] FOR IMPROVED ORAL ABSORPTION OF 7-[(E)]-T-BUTY-LOXYMINOMETHYL] CAMPTOTHECIN” (SIGMA-TAU INDUSTRIE FAR[…] S.P.A., priority 2005, published 2009).

System: large cell pulmonary carcinoma (not SCLC, H-460)
Settings: H-460 tumour line; from W097/31003

For CCC1(O)C(=O)OCc2c1cc1n(c2=O)Cc2c-1nc1ccccc1c2C#N (stereo not shown) [CPT 83], the “activity compared with reference compound topotecan” value is listed as “more active than topotecan”.
